We go through 29 compounds from the SangsterLogP compilation.

This series in a line: method code SF, from Suwinski, J.; Salwinska, E.; Watras, J.; Widel, M. (1985). Nitroimidazoles. VI. Partition coefficients and tautomerism of simple nitroimidazoles. 42(4)352-358.
`Cn1cnc([N+](=O)[O-])c1` registered a logP of -0.44. The same measure for `Cn1cnc(Cl)c1[N+](=O)[O-]`: 0.69. Turning to `Cn1ccnc1[N+](=O)[O-]`, the logP was -0.17. For `Cn1cncc1[N+](=O)[O-]`, the logP stood at 0.13.

The compound `COc1c([N+](=O)[O-])ncn1C` came in with a logP of 0.19. With `Cc1nc(Cl)c([N+](=O)[O-])n1C`, the logP is 0.87. As for `Cn1cc([N+](=O)[O-])nc1Cl`, the figure is 0.19; as for `Cn1c([N+](=O)[O-])cnc1Cl`, 0.62; as for `Cc1nc([N+](=O)[O-])c(Cl)n1C`, 0.34. The same measure for `COc1c([N+](=O)[O-])nc(C)n1C`: -0.09. In the case of `Cc1nc([N+](=O)[O-])c(N)n1C`, the logP was -1.1.

Regarding `Cc1nc([N+](=O)[O-])c(Br)n1C`, the logP was 0.44. As for `O=[N+]([O-])c1[nH]cnc1Br`, the figure is 0.78. As for `Cn1cnc([N+](=O)[O-])c1N`, the figure is -1; as for `Cc1nc([N+](=O)[O-])cn1C`, -0.24. With `Cc1[nH]c(Br)nc1[N+](=O)[O-]`, the logP was 0.86. With `O=[N+]([O-])c1ncc[nH]1`, the logP stood at 0.11. As for `Cn1cnc(Br)c1[N+](=O)[O-]`, the figure is 0.77. As for `Cc1nc(Br)c([N+](=O)[O-])n1C`, the figure is 0.87.

Compound `Cn1cc([N+](=O)[O-])nc1Br` gave a logP of 0.33. As for `Cc1nc([N+](=O)[O-])c(Br)[nH]1`, the figure is 1.14.

For the compound `Cc1c([N+](=O)[O-])ncn1C`, the logP was -0.11.

`Cc1nc(Br)n(C)c1[N+](=O)[O-]` had a logP of 0.82. Regarding `COc1[nH]cnc1[N+](=O)[O-]`, the logP was found to be 0.13.

For `Cc1nc([N+](=O)[O-])c(Cl)[nH]1`, the logP came to 1.06.

Take `COc1[nH]c(C)nc1[N+](=O)[O-]`: the logP is 0.21. As for `Cc1c([N+](=O)[O-])nc(Br)n1C`, the figure is 0.39; as for `Cn1cnc([N+](=O)[O-])c1Br`, 0.36.

Consider `Cc1[nH]cnc1[N+](=O)[O-]`, for which the logP came out at 0.23.
